system: Artemia salina; experiment: Toxicity to Artemia salina after 24 hrs; format: organism-based; details: in vivo

How did the LC50 turn out when C[C@@H]1C[C@@H](O)[C@@]23COC(=O)[C@@H]2CCC[C@@H]3[C@@]12C[C@@H](c1ccoc1)OC2=O was run?
The LC50 was greater than 500 ppm.

For CC(=O)OC[C@@]12[C@@H](OC(C)=O)C[C@@H](C)[C@]3(C[C@H](c4ccoc4)OC3=O)[C@H]1CCC[C@]21CO1 [MONTANIN C], which LC50 is on record?
The LC50 was 66.4 ppm.

How did the LC50 turn out when C[C@@H]1C[C@@H]2OC(=O)C3=C2[C@H](CCC3)[C@@]12C[C@@H](c1ccoc1)OC2=O [TEUCVIN] was run?
The LC50 was greater than 500 ppm.

Source: ChEMBL document CHEMBL1147299, “12-epi-teuscordonin and other neoclerodanes from Teucrium bicolor” (J Nat Prod, 1989)
